Assays:
Format in all cases: functional, cell-based
BGC-823 = assay: Cytotoxicity against human BGC823 cells assessed as reduction in cell viability after 72 hrs by MTT assay; settings: BGC-823, 72 h
MCF7 = assay: Cytotoxicity against human MCF7 cells assessed as reduction in cell viability after 72 hrs by MTT assay; settings: MCF7, 72 h
A2780 = assay: Cytotoxicity against human A2780 cells assessed as reduction in cell viability after 72 hrs by MTT assay; settings: A2780, 72 h
HCT-116 = assay: Cytotoxicity against human HCT116 cells assessed as reduction in cell viability after 72 hrs by MTT assay; settings: HCT-116, 72 h
HT-29 = assay: Cytotoxicity against human HT-29 cells assessed as reduction in cell viability after 72 hrs by MTT assay; settings: HT-29, 72 h
HepG2 = assay: Cytotoxicity against human HepG2 cells assessed as reduction in cell viability after 72 hrs by MTT assay; settings: HepG2, 72 h

SMILES | IC50 (BGC-823) | IC50 (MCF7) | IC50 (A2780) | IC50 (HCT-116) | IC50 (HT-29) | IC50 (HepG2)
CN1[C@@H]2c3[nH]c4ccccc4c3C[C@H]1[C@H](C#N)N1[C@@H](CNC(=O)c3cc4ccccc4s3)c3[nH]c4ccccc4c3C[C@@H]21 | 240 nM | 3180 nM | 20 nM | 500 nM | 640 nM | 300 nM
CN1[C@@H]2c3[nH]c4ccccc4c3C[C@H]1[C@H](C#N)N1[C@@H](CNC(=O)c3ccccc3)c3[nH]c4ccccc4c3C[C@@H]21 | 740 nM | 9670 nM | 200 nM | 430 nM | 140 nM | 250 nM
COc1ccc(/C=C/C(=O)NC[C@H]2c3[nH]c4ccccc4c3C[C@H]3[C@H]4c5[nH]c6ccccc6c5C[C@@H]([C@H](C#N)N23)N4C)cc1 | 5450 nM | 4220 nM | 860 nM | 5060 nM | 3060 nM | 2140 nM
CN1[C@@H]2c3[nH]c4ccccc4c3C[C@H]1[C@H](C#N)N1[C@@H](CNC(=O)c3cc4ccccc4[nH]3)c3[nH]c4ccccc4c3C[C@@H]21 | 1690 nM | 9780 nM | 7100 nM | 880 nM | 1220 nM | 440 nM
CN1[C@@H]2c3[nH]c4ccccc4c3C[C@H]1[C@H](C#N)N1[C@@H](CNC(=O)c3ccc(F)cc3)c3[nH]c4ccccc4c3C[C@@H]21 | 310 nM | 980 nM | 250 nM | 140 nM | 1370 nM | 210 nM
CN1[C@@H]2c3[nH]c4ccccc4c3C[C@H]1[C@H](C#N)N1[C@@H](CNC(=O)c3cccs3)c3[nH]c4ccccc4c3C[C@@H]21 | 280 nM | 470 nM | 230 nM | 550 nM | 1330 nM | 180 nM
CN1[C@@H]2c3[nH]c4ccccc4c3C[C@H]1[C@H](C#N)N1[C@@H](CNC(=O)/C=C/c3ccccc3)c3[nH]c4ccccc4c3C[C@@H]21 | 4300 nM | 7190 nM | 770 nM | 1960 nM | 1400 nM | 470 nM
CN1[C@@H]2c3[nH]c4ccccc4c3C[C@H]1[C@H](C#N)N1[C@@H](CN3C(=O)c4ccccc4C3=O)c3[nH]c4ccccc4c3C[C@@H]21 | 410 nM | 610 nM | 80 nM | 40 nM | 80 nM | 20 nM
CN1[C@@H]2c3[nH]c4ccccc4c3C[C@H]1[C@H](C#N)N1[C@@H](CNC(=O)/C=C/c3cccc(C(F)(F)F)c3)c3[nH]c4ccccc4c3C[C@@H]21 | 910 nM | 110 nM | > 10000 nM | 610 nM | 5060 nM | 540 nM
CN1[C@@H]2c3[nH]c4ccccc4c3C[C@H]1[C@H](C#N)N1[C@@H](CNC(=O)c3cccc4c3CCCC4)c3[nH]c4ccccc4c3C[C@@H]21 | 3540 nM | 4470 nM | 810 nM | 4210 nM | 3340 nM | 540 nM
CN1[C@@H]2c3[nH]c4ccccc4c3C[C@H]1[C@H](C#N)N1[C@@H](CNC(=O)c3ccc4ccccc4n3)c3[nH]c4ccccc4c3C[C@@H]21 | 80 nM | 150 nM | 60 nM | 240 nM | 150 nM | 110 nM
CN1[C@@H]2c3[nH]c4ccccc4c3C[C@H]1[C@H](C#N)N1[C@@H](CNC(=O)c3ccc(Cl)cc3)c3[nH]c4ccccc4c3C[C@@H]21 | 110 nM | 610 nM | 230 nM | 630 nM | 130 nM | 350 nM
CN1[C@@H]2c3[nH]c4ccccc4c3C[C@H]1[C@H](C#N)N1[C@@H](CNC(=O)c3cc4ccccc4o3)c3[nH]c4ccccc4c3C[C@@H]21 | 210 nM | 320 nM | 230 nM | 330 nM | 850 nM | 280 nM
COc1ccc(C(=O)NC[C@H]2c3[nH]c4ccccc4c3C[C@H]3[C@H]4c5[nH]c6ccccc6c5C[C@@H]([C@H](C#N)N23)N4C)cc1 | 320 nM | 600 nM | 320 nM | 430 nM | 840 nM | 310 nM
CC(=O)NC[C@H]1c2[nH]c3ccccc3c2C[C@H]2[C@H]3c4[nH]c5ccccc5c4C[C@@H]([C@H](C#N)N12)N3C | 2200 nM | 5300 nM | 630 nM | 4340 nM | 1180 nM | 420 nM
CN1[C@@H]2c3[nH]c4ccccc4c3C[C@H]1[C@H](C#N)N1[C@@H](CNC(=O)c3ccco3)c3[nH]c4ccccc4c3C[C@@H]21 | 300 nM | 160 nM | 120 nM | 170 nM | 100 nM | 250 nM
CCc1ccc(C(=O)NC[C@H]2c3[nH]c4ccccc4c3C[C@H]3[C@H]4c5[nH]c6ccccc6c5C[C@@H]([C@H](C#N)N23)N4C)cc1 | 660 nM | 170 nM | 670 nM | 100 nM | 3560 nM | 570 nM
CN1[C@@H]2c3[nH]c4ccccc4c3C[C@H]1[C@H](C#N)N1[C@@H](CNC(=O)c3cccc(C(F)(F)F)c3)c3[nH]c4ccccc4c3C[C@@H]21 | 870 nM | 110 nM | 210 nM | 630 nM | 140 nM | 340 nM
CN1[C@@H]2c3[nH]c4ccccc4c3C[C@H]1[C@H](C#N)N1[C@@H](CNC(=O)c3ccccn3)c3[nH]c4ccccc4c3C[C@@H]21 | 80 nM | 40 nM | 30 nM | 40 nM | 70 nM | 70 nM
CN1[C@@H]2c3[nH]c4ccccc4c3C[C@H]1[C@H](C#N)N1[C@@H](CNC(=O)c3ccc4ccccc4c3)c3[nH]c4ccccc4c3C[C@@H]21 | 1110 nM | 4650 nM | 1030 nM | 420 nM | 4940 nM | 1210 nM

From ChEMBL document CHEMBL4052628, “Synthesis and cytotoxicity of a novel series of saframycin-ecteinascidin analogs containing tetrahydro-β-carboline moieties” (Eur J Med Chem, 2017)
